Results published in ChEMBL document CHEMBL5053510, “Discovery of AS-1763: A Potent, Selective, Noncovalent, and Orally Available Inhibitor of Bruton's Tyrosine Kinase” (J Med Chem, 2021).

Test system: OCI-Ly10
Assay: Antiproliferative activity against human OCILY10 cells harboring BTK C481S mutant […] gene assessed as reduction in cell viability after 96 hrs
Format: functional, cell-based
Details: OCI-Ly10, 96 h

C=CC(=O)N1CCC[C@@H](n2nc(-c3ccc(Oc4ccccc4)cc3)c3c(N)ncnc32)C1 [IBRUTINIB]
IC50: 1030 nM
